From a compilation of properties of binary mixtures (doi:10.1016/j.jct.2020.106150)

Test: xn = mol fraction of the nth substance listed
Conditions: 100 kPa

CCCC[P+](C)(CCCC)CCCC.COS(=O)(=O)[O-] + O=Cc1ccco1
x1 = 1
Conditions	speed of sound [m/s]	viscosity [mPa·s]
293.15 K	1563.7	730
298.15 K	1546.1	520
303.15 K	1529.7	380
308.15 K	1514.3	290
313.15 K	1499.2	217
318.15 K	1485.7	169
323.15 K	1472.1	133

O=Cc1ccco1 + CCCC[P+](C)(CCCC)CCCC.COS(=O)(=O)[O-]
Conditions	speed of sound [m/s]	viscosity [mPa·s]
293.15 K, x2 = 0	1459.1	1.62
293.15 K, x2 = 0.062	1482.3	2.5
293.15 K, x2 = 0.142	1505.9	21.3
293.15 K, x2 = 0.249	1527	65
293.15 K, x2 = 0.317	1541.2	95
293.15 K, x2 = 0.399	1556.3	134
293.15 K, x2 = 0.499	1563.9	190
293.15 K, x2 = 0.732	1568.5	400
293.15 K, x2 = 0.823	1566.1	500
293.15 K, x2 = 0.863	1565.4	560
293.15 K, x2 = 0.91	1563.4	610
293.15 K, x2 = 0.951	1563.1	660
298.15 K, x2 = 0	1440.2	1.48
298.15 K, x2 = 0.142	1489.6	10.1
298.15 K, x2 = 0.191	1499.2	17.1
298.15 K, x2 = 0.249	1511.1	31
298.15 K, x2 = 0.317	1525.5	47
298.15 K, x2 = 0.399	1540.4	72
298.15 K, x2 = 0.499	1548.6	101
298.15 K, x2 = 0.624	1555.2	160
298.15 K, x2 = 0.732	1552.5	270
298.15 K, x2 = 0.823	1550.2	350
298.15 K, x2 = 0.863	1549.3	390
298.15 K, x2 = 0.91	1547.2	440
298.15 K, x2 = 0.951	1546.2	480
303.15 K, x2 = 0	1422	1.36
303.15 K, x2 = 0.062	1454.5	2.14
303.15 K, x2 = 0.1	1463	3.1
303.15 K, x2 = 0.142	1472.1	4.1
303.15 K, x2 = 0.249	1493.1	8.7
303.15 K, x2 = 0.317	1508.5	25
303.15 K, x2 = 0.399	1524.3	40
303.15 K, x2 = 0.499	1534.6	55
303.15 K, x2 = 0.624	1539.8	93
303.15 K, x2 = 0.823	1533.5	260
303.15 K, x2 = 0.863	1532.5	290
303.15 K, x2 = 0.91	1531.2	320
303.15 K, x2 = 0.951	1530.1	350
308.15 K, x2 = 0	1403.8	1.26
308.15 K, x2 = 0.062	1434	1.99
308.15 K, x2 = 0.1	1443.5	3
308.15 K, x2 = 0.191	1466.5	5.6
308.15 K, x2 = 0.249	1476.3	7.7
308.15 K, x2 = 0.399	1508.3	20.4
308.15 K, x2 = 0.499	1515.9	34
308.15 K, x2 = 0.732	1521.5	133
308.15 K, x2 = 0.823	1519.8	194
308.15 K, x2 = 0.863	1517.1	217
308.15 K, x2 = 0.91	1516.5	241
308.15 K, x2 = 0.951	1515.5	270
313.15 K, x2 = 0.062	1418.8	1.76
313.15 K, x2 = 0.142	1438.3	3.6
313.15 K, x2 = 0.191	1449	5.6
313.15 K, x2 = 0.249	1459.5	6.7
313.15 K, x2 = 0.317	1475.5	8.8
313.15 K, x2 = 0.399	1492.4	11.5
313.15 K, x2 = 0.499	1501.5	17.9
313.15 K, x2 = 0.624	1509.5	43
313.15 K, x2 = 0.732	1505.7	101
313.15 K, x2 = 0.823	1504.6	146
313.15 K, x2 = 0.863	1502.3	165
313.15 K, x2 = 0.91	1500.7	185
313.15 K, x2 = 0.951	1500.5	201
318.15 K, x2 = 0	1367.8	1.09
318.15 K, x2 = 0.1	1410.1	2.5
318.15 K, x2 = 0.191	1431.3	4.3
318.15 K, x2 = 0.317	1457.6	7
318.15 K, x2 = 0.399	1476.4	9.9
318.15 K, x2 = 0.624	1494.6	32
318.15 K, x2 = 0.732	1493.4	81
318.15 K, x2 = 0.823	1489.6	116
318.15 K, x2 = 0.863	1488.6	130
318.15 K, x2 = 0.91	1488.2	144
318.15 K, x2 = 0.951	1486.5	158
323.15 K, x2 = 0	1349.9	1.02
323.15 K, x2 = 0.062	1386	1.53
323.15 K, x2 = 0.1	1394.5	2.3
323.15 K, x2 = 0.142	1402.1	3.3
323.15 K, x2 = 0.317	1443.6	6
323.15 K, x2 = 0.399	1460.6	8.6
323.15 K, x2 = 0.499	1469.8	18.6
323.15 K, x2 = 0.624	1479.9	27
323.15 K, x2 = 0.732	1479.9	73
323.15 K, x2 = 0.823	1478.2	99
323.15 K, x2 = 0.863	1477.2	110
323.15 K, x2 = 0.91	1476.1	117
323.15 K, x2 = 0.951	1474.6	126
